Where “and” joins values, the source holds several entries; their conditions need not be identical. Equal values may be shown once.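 Assay format: 96-well plates, 48-hour exposure. Abbreviation: GI50, concentration required for 50% inhibition of growth.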 Calls of active or inactive are those of the source. No stated cut-off is given here; in the data, active = GI50 up to about 1.1 µM and inactive = higher.
Tests used:
Test in all cases: DTP human tumour cell line panel, 48 h
[1] = system: RXF 393
[2] = system: NCI-H460
[3] = system: RPMI-8226
[4] = system: CCRF-CEM
[5] = system: NCI/ADR-RES
[6] = system: OVCAR-8
[7] = system: Hs-578T
[8] = system: SK-MEL-5
[9] = system: 786-0
[10] = system: UO-31
[11] = system: PC-3
[12] = system: TK-10
[13] = system: NCI-H23
[14] = system: ACHN
[15] = system: SK-OV-3
[16] = system: K562
[17] = system: T47D
[18] = system: MDA-MB-435
[19] = system: SK-MEL-2
[20] = system: NCI-H226

SMILES | GI50 [1] | GI50 [2] | GI50 [3] | GI50 [4] | GI50 [5] | GI50 [6] | GI50 [7] | GI50 [8] | GI50 [9] | GI50 [10] | GI50 [11] | GI50 [12] | GI50 [13] | GI50 [14] | GI50 [15] | GI50 [16] | GI50 [17] | GI50 [18] | GI50 [19] | GI50 [20]
COc1ccc2c(c1)/C(=C\c1c(-c3ccccc3)nc3n1CCS3)C(=O)N2 | 13.6 µM (inactive) | 3.52 µM (inactive) | 5.26 µM (inactive) | 4.1 µM (inactive) | 4.5 µM (inactive) | 14.6 µM (inactive) | 11 µM (inactive) | 5.08 µM (inactive) | 11.9 µM (inactive) | 9.82 µM (inactive) | 2.97 µM (inactive) | 10.7 µM (inactive) | 11.5 µM (inactive) | 11.5 µM (inactive) | 12.7 µM (inactive) | 2.94 µM (inactive) | 7.5 µM (inactive) | 1.53 µM (inactive) | 5.25 µM (inactive) | 
Cc1cn2c(/C=C3/C(=O)Nc4ccccc43)c(C)nc2s1 | 2.6 µM (inactive) | 0.653 µM (active) | 1.75 µM (inactive) | 1.03 µM (active) | 2.39 µM (inactive) | 3.54 µM (inactive) | 1.99 µM (inactive) | 0.516 µM (active) | 3.82 µM (inactive) | 5.6 µM (inactive) | 1.3 µM (inactive) | 3.78 µM (inactive) | 4.19 µM (inactive) | 6.07 µM (inactive) | 3.15 µM (inactive) | 0.431 µM (active) | 0.665 µM (active) | 0.138 µM (active) | 1.32 µM (inactive) | 
Cc1nccn1S(=O)(=O)c1ccc(Br)cc1Br | 23 µM (inactive) | 38.4 µM (inactive) | 19.5 µM (inactive) | 26.5 µM (inactive) | 28.5 µM (inactive) | 44.4 µM (inactive) | 41.1 µM (inactive) | 19.9 µM (inactive) | 45.7 µM (inactive) | 22.3 µM (inactive) | 33 µM (inactive) | 38.6 µM (inactive) | 36.1 µM (inactive) | 54.1 µM (inactive) | 41.8 µM (inactive) | 29.1 µM (inactive) | 22.6 µM (inactive) | 19.5 µM (inactive) | 22.1 µM (inactive) | 
O=C1N2CCc3c([nH]c4ccccc34)C23CC2CCCC12S3 (configuration not stated) | > 50 µM (inactive) |  | 27.4 µM (inactive) |  | 10.7 µM (inactive) | 28.8 µM (inactive) | 22 µM (inactive) | 20.3 µM (inactive) | 33.7 µM (inactive) | 32 µM (inactive) | 24.7 µM (inactive) | > 50 µM (inactive) | 20.1 µM (inactive) | 37.3 µM (inactive) | > 50 µM (inactive) | > 50 µM (inactive) | 20.5 µM (inactive) | 33.7 µM (inactive) | > 50 µM (inactive) | > 50 µM (inactive)
CCOC(=O)C(Cc1ccc2c(c1)CCC2)(Cc1ccc2c(c1)CCC2)C(=O)OCC | 23.4 µM (inactive) | 51.3 µM (inactive) | 55.7 µM (inactive) | 32.2 µM (inactive) | > 100 µM (inactive) | > 100 µM (inactive) | > 100 µM (inactive) | 33.8 µM (inactive) | 94.2 µM (inactive) | 71.9 µM (inactive) | 32.5 µM (inactive) | > 100 µM (inactive) | 98.4 µM (inactive) | > 100 µM (inactive) | > 100 µM (inactive) | 58.5 µM (inactive) | 34.2 µM (inactive) | 44.6 µM (inactive) | 35.6 µM (inactive) | 
C[C@]12CC[C@@H]3c4cc(Br)c(O)c(Br)c4CC[C@H]3[C@@H]1CC(Br)C2=O (some centres not stated) | 2.51 µM (inactive) | 5.82 µM (inactive) |  | 1.71 µM (inactive) | 4.63 µM (inactive) | 2.54 µM (inactive) | 5.86 µM (inactive) |  | 4.24 µM (inactive) | 1.23 µM (inactive) | 8.61 µM (inactive) | 14.2 µM (inactive) |  | 6.37 µM (inactive) | 14.6 µM (inactive) | 2.29 µM (inactive) | 4.65 µM (inactive) | 4.13 µM (inactive) | 12.2 µM (inactive) | 6.5 µM (inactive)
Clc1ccc(-c2cc(-c3nc4ccccc4[nH]3)no2)cc1 |  | 16.9 µM (inactive) | 24.3 µM (inactive) | 18.7 µM (inactive) | 23.6 µM (inactive) | 33.8 µM (inactive) | 29.6 µM (inactive) | 17.7 µM (inactive) | 24.3 µM (inactive) | 19 µM (inactive) | 23.3 µM (inactive) | 21.9 µM (inactive) | 18.9 µM (inactive) | 17.4 µM (inactive) | 18.6 µM (inactive) | 19.8 µM (inactive) | 11.7 µM (inactive) | 17 µM (inactive) | 18.7 µM (inactive) | 27.4 µM (inactive)
C/C(=N\Nc1nc2ccccc2o1)c1ncccn1 |  | < 0.0234 µM (active) | 0.0137 µM (active) | < 0.01 µM (active) | < 0.0163 µM (active) | < 0.01 µM (active) | 0.984 µM (active) | 0.0574 µM (active) | < 0.0252 µM (active) | < 0.0313 µM (active) | < 0.0273 µM (active) | 0.0675 µM (active) | 0.123 µM (active) | < 0.0165 µM (active) | 0.0312 µM (active) | 0.012 µM (active) | < 0.01 µM (active) | 0.0573 µM (active) | 0.175 µM (active) | 0.118 µM (active)
CC1OC(OC2C(CO)OC(O[C@H]3CC[C@@]4(C)C(=CC[C@H]5[C@@H]6C[C@@H]7O[C@](O)(CC[C@@H](C)COC8OC(CO)C(O)C(O)C8O)[C@@H](C)[C@@H]7[C@@]6(C)CC[C@@H]54)C3)C(OC3OC(C)C(O)C(O)C3O)C2O)C(O)C(O)C1O (some centres not stated) | 2.4 µM (inactive) | 1.88 µM (inactive) | 2.34 µM (inactive) | 2.3 µM (inactive) | 2.06 µM (inactive) | 2.19 µM (inactive) | 33.1 µM (inactive) | 4.21 µM (inactive) | 2.07 µM (inactive) | 2.82 µM (inactive) | 2.41 µM (inactive) | 8.45 µM (inactive) | 3.55 µM (inactive) | 5.28 µM (inactive) | 2.84 µM (inactive) | 5.07 µM (inactive) | 4.05 µM (inactive) | 3.06 µM (inactive) | 4.98 µM (inactive) | 
O=C1c2ccccc2C(=O)c2c(NCC(O)CO)ccc(NCC(O)CO)c21 (configuration not stated) |  | 61 µM (inactive) | 65 µM (inactive) | 41.4 µM (inactive) | > 100 µM (inactive) | 69.2 µM (inactive) | 68.7 µM (inactive) | 33.7 µM (inactive) | 69.7 µM (inactive) | 17.8 µM (inactive) | 78 µM (inactive) | 72.4 µM (inactive) | 96.2 µM (inactive) | 40.5 µM (inactive) | 40.9 µM (inactive) | 35.2 µM (inactive) | > 100 µM (inactive) | > 100 µM (inactive) | 24.4 µM (inactive) | 51.4 µM (inactive)
COc1nc(C#CC(C)(C)C)nc(OC)n1 | 31.9 µM (inactive) | 26.8 µM (inactive) |  |  | 21 µM (inactive) | 17.8 µM (inactive) | 30.8 µM (inactive) | 16 µM (inactive) | 23.8 µM (inactive) | 28.7 µM (inactive) | 31 µM (inactive) | 27.4 µM (inactive) | 19.7 µM (inactive) | 39 µM (inactive) | 55 µM (inactive) | 38 µM (inactive) | 55.5 µM (inactive) | 15 µM (inactive) | 30.3 µM (inactive) | 
C=C(C)COc1cc(/N=C(/S)OC(C)C)ccc1Cl |  | 15.4 µM (inactive) | 20 µM (inactive) | 13.5 µM (inactive) | 15.2 µM (inactive) | 16.2 µM (inactive) | 20.4 µM (inactive) | 19.5 µM (inactive) | 16.6 µM (inactive) | 13.5 µM (inactive) | 14.7 µM (inactive) | 15.2 µM (inactive) | 16.1 µM (inactive) | 17.1 µM (inactive) | 19.3 µM (inactive) | 11.7 µM (inactive) | 13.3 µM (inactive) | 15.2 µM (inactive) | 13.6 µM (inactive) | 17.9 µM (inactive)
CC(=O)OC1OC(C2c3cccc(O)c3C(=O)c3c(O)cc(CO)cc32)C(O)C(O)C1O (configuration not stated) | 9.4 µM (inactive) and 6.84 µM (inactive) | 3.43 µM (inactive) and 3.48 µM (inactive) |  | 3.04 µM (inactive) and 3.18 µM (inactive) | 3.88 µM (inactive) and 2.93 µM (inactive) | 4.31 µM (inactive) and 3.61 µM (inactive) | 2.31 µM (inactive) and 2.22 µM (inactive) | 1.53 µM (inactive) and 1.68 µM (inactive) | 4.18 µM (inactive) and 4.13 µM (inactive) | 6.46 µM (inactive) and 7.96 µM (inactive) | 3.01 µM (inactive) and 2.32 µM (inactive) | 5.69 µM (inactive) and 5.81 µM (inactive) | 3.08 µM (inactive) and 3.33 µM (inactive) |  | 4.14 µM (inactive) and 2.62 µM (inactive) | 3.16 µM (inactive) and 3 µM (inactive) | 1.41 µM (inactive) and 1.73 µM (inactive) | 3.72 µM (inactive) and 3.19 µM (inactive) | 2.32 µM (inactive) and 2.74 µM (inactive) | 
O=C(c1ccc(Cl)cc1)N(C(=O)N1CCCCC1)c1ccccc1 |  |  | 22.6 µM (inactive) | 23.7 µM (inactive) | 66.5 µM (inactive) | > 100 µM (inactive) | 41.1 µM (inactive) | 34.2 µM (inactive) | > 100 µM (inactive) | 34.7 µM (inactive) | 17.7 µM (inactive) |  | 85.5 µM (inactive) | > 100 µM (inactive) | 33.9 µM (inactive) | 31 µM (inactive) | 17.6 µM (inactive) | > 100 µM (inactive) | 25.2 µM (inactive) | > 100 µM (inactive)
